Source: patent publication US20090018111A1, “Novel Antimicrobial Medicament” (priority 2004, published 2009)
Read-outs that look alike come from different tables or passages of the source.

Assays:
Experiment in all cases: Sensitivity test (agar dilution), clinical isolate
B. cepacia 14300 = type: cell-based, Burkholderia cepacia
Protocol: (§1) In addition, the antibacterial activities were tested against strains which are comparatively less sensitive to β-lactam compounds, namely clinically isolated 13 strains of Acinetobacter calcoaceticus and Acinetobacter lwoffi, clinically isolated 11 strains of Serratia marcescens, clinically isolated 12 strains of Burkholderia cepacia, and clinically isolated 15 strains of Pseudomonas aeruginosa.
(§2) According to the standard method of Japan Chemotherapeutic Society (Chemotherapy, vol. […], p 76-79 (1981)) the test was carried out using the agar dilution method. After dissolving test samples in distilled water, agar medium containing the test samples was prepared in such a manner that the final concentration became twice serial dilution by pouring serially diluted combination drug solution or a single drug solution into agar medium. As agar medium was used Mueller Hinton Agar medium (MHA). Then, each strain was cultivated over night at 37° C. in an incubator and suspended in buffered saline solution with gelatin (BSG) in the concentration of about 10^6 CFU/ml. The suspension (about 5 μl) containing test strains was inoculated to the medium containing the test samples by Micro Planter.
(§3) Each drug was weighed, and dissolved in distilled water to give a test sample. When the drugs are used in combination, two kinds of solution containing each drug were mixed so as to be various ratio of concentration to give a mixed solution. When the sample is subjected to sensitivity test, this mixed solution was diluted by twice serial dilution method.
(§4) Furthermore, when the drug is solely used, each test sample was used as it is, and diluted by twice serial dilution method from the maximum concentration to the minimum concentration.

B. cepacia 14427 = type: cell-based, Burkholderia cepacia
Protocol: as §1, §2, §3, §4

B. cepacia 14428 = type: cell-based, Burkholderia cepacia
Protocol: as §1, §2, §3, §4

B. cepacia 14429 = type: cell-based, Burkholderia cepacia
Protocol: as §1, §2, §3, §4

B. cepacia 14430 = type: cell-based, Burkholderia cepacia
Protocol: as §1, §2, §3, §4

B. cepacia 14607 = type: cell-based, Burkholderia cepacia
Protocol: as §1, §2, §3, §4

B. cepacia 1892324 = type: cell-based, Burkholderia cepacia
Protocol: as §1, §2, §3, §4

B. cepacia 1993527 = type: cell-based, Burkholderia cepacia
Protocol: as §1, §2, §3, §4

B. cepacia 257-1 = type: cell-based, Burkholderia cepacia
Protocol: as §1, §2, §3, §4

B. cepacia 3138 = type: cell-based, Burkholderia cepacia
Protocol: as §1, §2, §3, §4

B. cepacia 7247 = type: cell-based, Burkholderia cepacia
Protocol: as §1, §2, §3, §4

B. cepacia 7438 = type: cell-based, Burkholderia cepacia
Protocol: as §1, §2, §3, §4

P. aeruginosa 13221 = type: cell-based, Pseudomonas aeruginosa
Protocol: as §1, §2, §3, §4

P. aeruginosa 13250 = type: cell-based, Pseudomonas aeruginosa
Protocol: as §1, §2, §3, §4

P. aeruginosa 15019 = type: cell-based, Pseudomonas aeruginosa
Protocol: as §1, §2, §3, §4

SMILES: C[C@@H](O)[C@H]1C(=O)N2C(C(=O)O)=C(S[C@@H]3CN[C@H](C(=O)N(C)C)C3)[C@H](C)[C@H]12 [MEPM, meropenem]
- MIC (B. cepacia 14300; Burkholderia cepacia, 14300, Concomitant (ME:SM = 1:1)): 0.5 µg/mL
- MIC (B. cepacia 14300; Burkholderia cepacia, 14300, Concomitant (ME:SM = 1:2)): 0.5 µg/mL
- MIC (B. cepacia 14300; Burkholderia cepacia, 14300, Concomitant (ME:SM = 1:4)): 0.25 µg/mL
- MIC (B. cepacia 14300; Burkholderia cepacia, 14300, Concomitant (ME:SM = 2:1)): 0.5 µg/mL
- MIC (B. cepacia 14300; Burkholderia cepacia, 14300, alone): 0.5 µg/mL
- MIC (B. cepacia 14427; Burkholderia cepacia, 14427, Concomitant (ME:SM = 1:1)): 1 µg/mL
- MIC (B. cepacia 14427; Burkholderia cepacia, 14427, Concomitant (ME:SM = 1:2)): 0.5 µg/mL
- MIC (B. cepacia 14427; Burkholderia cepacia, 14427, Concomitant (ME:SM = 1:4)): 0.5 µg/mL
- MIC (B. cepacia 14427; Burkholderia cepacia, 14427, Concomitant (ME:SM = 2:1)): 1 µg/mL
- MIC (B. cepacia 14427; Burkholderia cepacia, 14427, alone): 1 µg/mL
- MIC (B. cepacia 14428; Burkholderia cepacia, 14428, Concomitant (ME:SM = 1:1)): 1 µg/mL
- MIC (B. cepacia 14428; Burkholderia cepacia, 14428, Concomitant (ME:SM = 1:2)): 1 µg/mL
- MIC (B. cepacia 14428; Burkholderia cepacia, 14428, Concomitant (ME:SM = 1:4)): 0.5 µg/mL
- MIC (B. cepacia 14428; Burkholderia cepacia, 14428, Concomitant (ME:SM = 2:1)): 1 µg/mL
- MIC (B. cepacia 14428; Burkholderia cepacia, 14428, alone): 2 µg/mL
- MIC (B. cepacia 14429; Burkholderia cepacia, 14429, Concomitant (ME:SM = 1:1)): 1 µg/mL
- MIC (B. cepacia 14429; Burkholderia cepacia, 14429, Concomitant (ME:SM = 1:2)): 0.5 µg/mL
- MIC (B. cepacia 14429; Burkholderia cepacia, 14429, Concomitant (ME:SM = 1:4)): 0.5 µg/mL
- MIC (B. cepacia 14429; Burkholderia cepacia, 14429, Concomitant (ME:SM = 2:1)): 1 µg/mL
- MIC (B. cepacia 14429; Burkholderia cepacia, 14429, alone): 1 µg/mL
- MIC (B. cepacia 14430; Burkholderia cepacia, 14430, Concomitant (ME:SM = 1:1)): 1 µg/mL
- MIC (B. cepacia 14430; Burkholderia cepacia, 14430, Concomitant (ME:SM = 1:2)): 1 µg/mL
- MIC (B. cepacia 14430; Burkholderia cepacia, 14430, Concomitant (ME:SM = 1:4)): 2 µg/mL
- MIC (B. cepacia 14430; Burkholderia cepacia, 14430, Concomitant (ME:SM = 2:1)): 2 µg/mL
- MIC (B. cepacia 14430; Burkholderia cepacia, 14430, alone): 2 µg/mL
- MIC (B. cepacia 14607; Burkholderia cepacia, 14607, Concomitant (ME:SM = 1:1)): 1 µg/mL
- MIC (B. cepacia 14607; Burkholderia cepacia, 14607, Concomitant (ME:SM = 1:2)): 0.5 µg/mL
- MIC (B. cepacia 14607; Burkholderia cepacia, 14607, Concomitant (ME:SM = 1:4)): 0.5 µg/mL
- MIC (B. cepacia 14607; Burkholderia cepacia, 14607, Concomitant (ME:SM = 2:1)): 1 µg/mL
- MIC (B. cepacia 14607; Burkholderia cepacia, 14607, alone): 1 µg/mL
- MIC (B. cepacia 1892324; Burkholderia cepacia, 1892324, Concomitant (ME:SM = 1:1)): 1 µg/mL
- MIC (B. cepacia 1892324; Burkholderia cepacia, 1892324, Concomitant (ME:SM = 1:2)): 1 µg/mL
- MIC (B. cepacia 1892324; Burkholderia cepacia, 1892324, Concomitant (ME:SM = 1:4)): 0.5 µg/mL
- MIC (B. cepacia 1892324; Burkholderia cepacia, 1892324, Concomitant (ME:SM = 2:1)): 2 µg/mL
- MIC (B. cepacia 1892324; Burkholderia cepacia, 1892324, alone): 2 µg/mL
- MIC (B. cepacia 1993527; Burkholderia cepacia, 1993527, Concomitant (ME:SM = 1:1)): 1 µg/mL
- MIC (B. cepacia 1993527; Burkholderia cepacia, 1993527, Concomitant (ME:SM = 1:2)): 1 µg/mL
- MIC (B. cepacia 1993527; Burkholderia cepacia, 1993527, Concomitant (ME:SM = 1:4)): 2 µg/mL
- MIC (B. cepacia 1993527; Burkholderia cepacia, 1993527, Concomitant (ME:SM = 2:1)): 2 µg/mL
- MIC (B. cepacia 1993527; Burkholderia cepacia, 1993527, alone): 2 µg/mL
- MIC (B. cepacia 257-1; Burkholderia cepacia, 2571, Concomitant (ME:SM = 1:1)): 0.5 µg/mL
- MIC (B. cepacia 257-1; Burkholderia cepacia, 2571, Concomitant (ME:SM = 1:2)): 0.25 µg/mL
- MIC (B. cepacia 257-1; Burkholderia cepacia, 2571, Concomitant (ME:SM = 1:4)): 0.25 µg/mL
- MIC (B. cepacia 257-1; Burkholderia cepacia, 2571, Concomitant (ME:SM = 2:1)): 0.5 µg/mL
- MIC (B. cepacia 257-1; Burkholderia cepacia, 2571, alone): 0.5 µg/mL
- MIC (B. cepacia 3138; Burkholderia cepacia, 3138, Concomitant (ME:SM = 1:1)): 1 µg/mL
- MIC (B. cepacia 3138; Burkholderia cepacia, 3138, Concomitant (ME:SM = 1:2)): 1 µg/mL
- MIC (B. cepacia 3138; Burkholderia cepacia, 3138, Concomitant (ME:SM = 1:4)): 2 µg/mL
- MIC (B. cepacia 3138; Burkholderia cepacia, 3138, Concomitant (ME:SM = 2:1)): 2 µg/mL
- MIC (B. cepacia 3138; Burkholderia cepacia, 3138, alone): 2 µg/mL
- MIC (B. cepacia 7247; Burkholderia cepacia, 7247, Concomitant (ME:SM = 1:1)): 2 µg/mL
- MIC (B. cepacia 7247; Burkholderia cepacia, 7247, Concomitant (ME:SM = 1:2)): 2 µg/mL
- MIC (B. cepacia 7247; Burkholderia cepacia, 7247, Concomitant (ME:SM = 1:4)): 2 µg/mL
- MIC (B. cepacia 7247; Burkholderia cepacia, 7247, Concomitant (ME:SM = 2:1)): 2 µg/mL
- MIC (B. cepacia 7247; Burkholderia cepacia, 7247, alone): 2 µg/mL
- MIC (B. cepacia 7438; Burkholderia cepacia, 7438, Concomitant (ME:SM = 1:1)): 2 µg/mL
- MIC (B. cepacia 7438; Burkholderia cepacia, 7438, Concomitant (ME:SM = 1:2)): 1 µg/mL
- MIC (B. cepacia 7438; Burkholderia cepacia, 7438, Concomitant (ME:SM = 1:4)): 2 µg/mL
- MIC (B. cepacia 7438; Burkholderia cepacia, 7438, Concomitant (ME:SM = 2:1)): 2 µg/mL
- MIC (B. cepacia 7438; Burkholderia cepacia, 7438, alone): 2 µg/mL
- MIC (P. aeruginosa 13221; Concomitant (ME:SM = 1:1)): 0.125 µg/mL
- MIC (P. aeruginosa 13221; Concomitant (ME:SM = 1:2)): 0.125 µg/mL
- MIC (P. aeruginosa 13221; Pseudomonas aeruginosa, 13221): 0.125 µg/mL
- MIC (P. aeruginosa 13221; Pseudomonas aeruginosa, 13221, Concomitant (ME:SM = 1:4), read-out: MIC): 0.063 µg/mL
- MIC (P. aeruginosa 13221; Pseudomonas aeruginosa, 13221, Concomitant (ME:SM = 2:1), read-out: MIC): 0.063 µg/mL
- MIC (P. aeruginosa 13250; Pseudomonas aeruginosa, 13250, Concomitant (ME:SM = 1:1)): 0.5 µg/mL
- MIC (P. aeruginosa 13250; Pseudomonas aeruginosa, 13250, Concomitant (ME:SM = 1:2)): 0.25 µg/mL
- MIC (P. aeruginosa 13250; Pseudomonas aeruginosa, 13250, Concomitant (ME:SM = 1:4)): 0.5 µg/mL
- MIC (P. aeruginosa 13250; Pseudomonas aeruginosa, 13250, Concomitant (ME:SM = 2:1)): 0.5 µg/mL
- MIC (P. aeruginosa 13250; Pseudomonas aeruginosa, 13250, alone): 0.5 µg/mL
- MIC (P. aeruginosa 15019; Pseudomonas aeruginosa, 15019, Concomitant (ME:SM = 1:1)): 4 µg/mL
- MIC (P. aeruginosa 15019; Pseudomonas aeruginosa, 15019, Concomitant (ME:SM = 1:2)): 4 µg/mL
- MIC (P. aeruginosa 15019; Pseudomonas aeruginosa, 15019, Concomitant (ME:SM = 1:4)): 2 µg/mL
- MIC (P. aeruginosa 15019; Pseudomonas aeruginosa, 15019, Concomitant (ME:SM = 2:1)): 4 µg/mL
- MIC (P. aeruginosa 15019; Pseudomonas aeruginosa, 15019, alone): 4 µg/mL
